Measurements published in PMC6987128, “Target protein-oriented isolation of Hes1 dimer inhibitors using protein based methods” (Scientific Reports, 2020).

Biological target: T1, Hes1 dimer formation (Hes1-Hes1 interaction) (Rattus norvegicus, UniProt Q04666)
T1 construct: Glutathione-S-transferase (GST) fused rat Hes1(3–281) protein was expressed in Escherichia coli; GST (N, cleaved yes); GST (N); made in house; host or cells: Escherichia coli JM109 (pGEX-ratHes1 3-281)
T1 sequence (Q04666 3-281): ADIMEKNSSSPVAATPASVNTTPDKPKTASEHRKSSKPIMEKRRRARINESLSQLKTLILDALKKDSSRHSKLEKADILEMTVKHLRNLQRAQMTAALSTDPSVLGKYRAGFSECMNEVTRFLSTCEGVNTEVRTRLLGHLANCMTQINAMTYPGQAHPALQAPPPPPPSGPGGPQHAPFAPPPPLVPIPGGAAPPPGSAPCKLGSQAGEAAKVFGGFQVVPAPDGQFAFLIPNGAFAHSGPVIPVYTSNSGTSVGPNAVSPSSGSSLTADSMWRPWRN
Test: Hes1-Hes1 interaction fluorescent plate assay (Hes1 dimer formation inhibition)
Type: binding
Source text: It is essential to inhibit undesired PPIs in drug development, and bioactivity-guided isolation using the inhibitory activity of PPIs is an attractive method to obtain effective inhibitors. However, currently there are only a few examples of such approaches using PPI assay systems[22],[23]. We previously developed a Hes1-Hes1 interaction fluorescent plate assay and reported the screening results of our natural products compound library (Fig. 2A)[24]. Glutathione-S-transferase (GST) fused rat Hes1(3–281) protein was expressed in Escherichia coli and purified rat Hes1 protein was immobilized on the bottom of 96 well plates. We prevented GST-GST interactions, which would result in false positives, by preparing GST-free Hes1 protein by GST cleavage with Turbo3C protease. After labeling Hes1 with Cy3, this florescent Hes1 protein was added to the wells of the above plate and incubated for 24 h at 4 °C. Hes1-Hes1 interaction was successfully detected as Cy3 fluorescence intensity. Using this assay system, we screened our 118 plant extract library and identified the MeOH extract of Psidium guajava leaves to contain naturally occurring compounds that inhibit Hes1 dimer formation. The MeOH extract (29.9 g) was fractionated using Diaion HP-20 with a MeOH-acetone solvent system to afford fractions 1A to 1C. Active fraction 1A (27.2 g) was suspended in 10% aq. MeOH and partitioned with hexane, EtOAc and BuOH to obtain hexane (1.1 g), EtOAc (5.7 g), BuOH (4.7 g) and aqueous (18.9 g) soluble fractions. Part of the active BuOH soluble fraction was subjected to ODS column chromatography and reverse-phase HPLC. Activity-guided separation yielded ten compounds (1–10; Fig. 3). The isolated compounds were identified as morin (1)[25], isoquercitrin (2)[26], methyl gallate (3)[27], (+)-catechin (4)[28],[29], dihydrophaseic acid (5)[30], quercetin (6)[26],[31], avicularin (7)[32],[33], gallic acid (8)[34], protocatechuic acid (9)[35] and 4-hydroxybenzoic acid (10)[36] based on comparisons of their spectral data with spectra in the literature.
Hes1-bound microplate wells[24] (Nunc Immobilizer^TM Amino Plate, Thermo) were incubated with 50 μL of Cy3-labeled-Hes1 in NET-N buffer (NET buffer (20 mM Tris-HCl, pH 7.5, 200 mM NaCl, 1 mM EDTA) containing 0.05% Nonidet® P-40, ca. 7 mg/L, dye/protein = 0.4) for 24 h at 4 °C. After removing the protein solution, the wells were washed twice with 200 μL of PBST, then each compound solution (in NET-N buffer, 50 μL) was added and the plates were incubated for 1 h at RT in the dark. The wells were washed twice with 200 μL of PBST, then dried under reduced pressure for 1 h in the dark. The Cy3 dye was excited at 544 nm and emission was monitored at 590 nm using a microplate reader (Fluoroskan Ascent, Thermo Labsystems, Vantaa, Finland). The assays were typically carried out in three individual wells, and the mean value and SD were calculated. The equilibrium between dimer formation between Cy3-Hes1/Cy3-Hes1 (in solution) and Cy3-Hes1/immobilized-Hes1 allowed the detection of Cy3-Hes1/immobilized-Hes1.
Typical procedure; Nunc Immobilizer^TM Amino 96 well Plate, white (Nalge Nunc Int., NY, USA) was used for immobilizing of Hes1. The micro plate wells were incubated with 100 µl of Hes1 (10 µg/mL in PBS) 2 h at 4 °C. After removing protein solution, the wells were incubated for 2 h at 4 °C with 100 µL of 10 mM ethanolamine (in 100 mM Na2CO3 buffer, pH 9.6) to block remaining activated units on the well. Then, wells were washed twice with 200 µL of PBST (PBS containing 0.05% Tween 20).
The Cy3 dye reagent was prepared as 1 vial of Cy3 monofunctional dye reagent (succinimidylester type; GE Healthcare, Buckinghamshire, UK) in DMSO (50 µL) and stored at -20 °C. Cy3-labeled Hes1 was prepared by mixing of protein in PBS with Cy3 dye reagent in DMSO (typically 0.6 µL of DMSO solution to 1 mL of 10 mg/L protein solution in PBS) for 30 min at 4 °C in the dark. […]

remaining activity at 2.5 µM (24 h, 2.5 μM compound, 0 μM = 100, read-out: Hes1 dimer formation rate (%)): 50.4%
remaining activity at 5 µM (24 h, 5 μM compound, 0 μM = 100, read-out: Hes1 dimer formation rate (%)): 27.6%
remaining activity at 10 µM (24 h, 10 μM compound, 0 μM = 100, read-out: Hes1 dimer formation rate (%)): 18.1%
remaining activity at 25 µM (24 h, 25 μM compound, 0 μM = 100, read-out: Hes1 dimer formation rate (%)): 4.1%
IC50 (Cy3-labeled Hes1 / immobilized Hes1, compound 1 h at RT, read-out: Hes1 dimer formation inhibitory activity IC50): 2530 nM
Structure (SMILES): CC1OC(Oc2cc3c(=O)oc4c(O)c(O)cc5c(=O)oc(c2O)c3c45)C(O)C(O)C1OC(=O)c1cc(O)c(O)c(O)c1 [Compound 11, 4-O-(4″-O-galloyl-α-L-rhamnopyranosyl)ellagic acid]
